Row | Compound | logP
1 | CC(C)c1cccc(S(N)(=O)=O)c1 | 1.81
2 | CC1=C(C(=O)Nc2ccccc2)S(=O)CCO1 (stereo not drawn) | 0.64
3 | O=C1C=CC(=O)C(c2ccccc2)=C1 | 1.95
4 | O=C(NN1CC=CCC1)c1cccs1 | 1.88
5 | CC(C)CCOC(=O)c1ccccc1 | 4.15
6 | O=C1C2C3C=CC(C3)C2C(=O)N1CCCCN1CCN(c2ncccn2)CC1 (stereo not drawn) | 1.36
7 | Cc1ccc(C(O)(Cn2ccnc2)c2ccc(Br)cc2)cc1 (stereo not drawn) | 3.55
8 | Cc1ccc(F)cc1NC1=NCCN1 | 1.41
9 | O=[N+]([O-])c1cnc(N=C2NCCO2)s1 | 0.57
10 | OC(Cn1ccnc1)(c1ccc(F)cc1)c1ccc(-c2ccccn2)cc1 (stereo not drawn) | 3.58
11 | c1ccc(-c2ncn[nH]2)cc1 | 1.54
12 | CCCCCCCCCCCC(=O)C(C)(C)C(=O)N(C)c1c(OC)cc(OC)cc1OC | 6.67
13 | O=C(c1cccc(C(F)(F)F)c1)c1ccc2n1CCC2C(=O)O (stereo not drawn) | 3.69
14 | OCc1cc(Cl)ccc1O | 1.44
15 | Cc1ccc(O)c(CO)c1 | 0.97
16 | CC1c2nc3ccccc3c(=O)n2CN1Cc1ccccc1 (stereo not drawn) | 1.72
17 | CC(C)c1ccc(S(N)(=O)=O)cc1 | 1.84
18 | CC1OC(OC2C(O)CC(OC3C(O)CC(OC4CCC5(C)C(CCC6C5CC(O)C5(C)C(C7COC(=O)C7)CCC65O)C4)OC3C)OC2C)CC(O)C1O (stereo not drawn) | 1.36
19 | CC(N)CC1CCCCC1 (stereo not drawn) | 2.96
20 | CC(C(=O)NCC(O)CO)n1ccnc1[N+](=O)[O-] (stereo not drawn) | -1.64
21 | CCN1CC(C(O)C(CC2CCCCC2)NC(=O)C(Cc2cnc[nH]2)NC(=O)C(CC(=O)N(C)CCOCOC)Cc2ccccc2)OC1=O (stereo not drawn) | 2.49
22 | Cc1ccccc1OCC(O)CNCCOc1ccc(C(N)=O)cc1 (stereo not drawn) | 2.22
23 | C=C1C(=O)OC2C=C(C)C(OC(C)=O)CC(O)C(C)=CC(OC(=O)C(C)=CC)C12 (stereo not drawn) | 1.16
24 | O=C1c2ccccc2C(=O)C1c1ccc(-c2ccccc2)cc1 | 4.79
25 | Cc1cccc(N=C2NCCN2)c1Cl | 1.83

Row | Compound | logP
26 | NNc1nncc2ccccc12 | 1
27 | NS(=O)(=O)c1ccc(Cl)c(Cl)c1 | 1.44
28 | Cc1cc(C)cc(C2C(=O)c3ccccc3C2=O)c1 | 4.02
29 | CNC(=O)OCc1c2c(n3c1C(OC(C)=O)CC3)C(=O)C=C(N1CCCC1)C2=O (stereo not drawn) | 1.4
30 | CCN1CC(C(O)C(CC2CCCCC2)NC(=O)C(Cc2cnc[nH]2)NC(=O)C(CC(=O)N(C)CCOCOCCOC)Cc2ccccc2)OC1=O (stereo not drawn) | 2.21
31 | CNC1CCc2ccccc2C1 (stereo not drawn) | 2.38
32 | CCn1c(=O)[nH]c(=O)c2[nH]cnc21 | -0.11
33 | O=c1[nH]nc(-c2ccccc2)c2ccccc12 | 2.48
34 | COC1CC(OC2CCC3(C)C(CCC4C3CCC3(C)C(C5=CC(=O)OC5)C(O)CC43O)C2)OC(C)C1O (stereo not drawn) | 0.59
35 | CC(=O)Nc1nc(NCC(O)CO)c(Cl)nc1[N+](=O)[O-] (stereo not drawn) | 0
36 | CCC1(CC)C(=O)NC(=O)N=C1OC(C)C | 1.86
37 | Cc1cc(Cl)cc(C)c1NC1=NCCN1 | 2.5
38 | CCCC(=O)OCC(Cc1cncn1C)C(CC)C(=O)OCc1ccccc1 (stereo not drawn) | 3.78
39 | CCc1cccc(C2C(=O)c3ccccc3C2=O)c1 | 3.92
40 | O=C(O)c1ccc(Cl)cc1Nc1cccc(Cl)c1 | 5
41 | C=C(C)C(=O)OCC(C)(O)COc1cccc2ccccc12 (stereo not drawn) | 3.77
42 | O=c1ccc2ccc3occc3c2o1 | 2.08
43 | CCN1CCCCC1 | 1.75
44 | CC(=O)Nc1nc(N2CCN(C)CC2)c(Cl)nc1[N+](=O)[O-] | 0.5
45 | CCCCc1cc(OC)c(CC(C)N)cc1OC (stereo not drawn) | 4
46 | Oc1cc2ccccc2cc1O | 2.24
47 | Cc1cnc(NS(=O)(=O)c2ccc(N)cc2)nc1 | 0.34
48 | CCCc1ccc(CC(=O)O)cc1 | 3
49 | CCCCCC(CCC)C(=O)O (stereo not drawn) | 3.2
50 | CC(=O)c1ccc(S(=O)(=O)NC(=O)NC2CCCCC2)cc1 | 2.44

Row | Compound | logP
51 | O=C(Cn1ccnc1[N+](=O)[O-])NCC(O)CO (stereo not drawn) | -1.85
52 | C=CC1CCC2OC2C1 (stereo not drawn) | 2.08
53 | c1ccc2c(c1)ccc1cc3c(ccc4ccccc43)cc12 | 6.75
54 | CCCCOC(=O)COc1cc(Cl)c(Cl)cc1Cl | 4.81
55 | COc1ccc(C(O)(Cn2ccnc2)c2ccc(-c3ccncc3)cc2)cc1 (stereo not drawn) | 3.55
56 | CCNCC(=O)Nc1c(C)cccc1C | 1.32
57 | O=C(NC12CC3CC(CC(C3)C1)C2)C(O)c1ccccc1 (stereo not drawn) | 3.09
58 | OC1CCCc2ccccc21 (stereo not drawn) | 1.98
59 | Cc1c(Br)cccc1N=C1NCCN1 | 1.94
60 | COCc1ccc(C#N)cc1 | 1.23
61 | C=C(C)C(=O)OCCOCCOCCOC(=O)C(=C)C | 1.88
62 | COc1ccc(NC(=O)CN2CCCCC2)cc1 | 2.52
63 | C=C1C(=O)OC2CC3(C)CCCC(=C)C3CC12 (stereo not drawn) | 3.42
64 | C=C(C)C(=O)OCC(C)(C)COC(=O)C(=C)C | 2.79
65 | Clc1ccc(OCc2cccc(CN3CCOCC3)c2)cc1 | 3.52
66 | O=c1[nH]c2ccccc2cc1-c1ccccc1 | 2.99
67 | CCC1(CC)C(=O)N=C(OC(C)C)NC1=O | 1.44
68 | CCCCCC=CCC=CCCCCCCCC(=O)O | 7.05
69 | COc1ccc(Cc2cnc(N)nc2N)cc1C(C)C | 2.79
70 | CCOC(=O)C=COc1ccccc1 | 3.18
71 | OCC1c2ccccc2-c2ccccc21 | 2.89
72 | Cc1ccc(Br)cc1N=C1NCCN1 | 1.94
73 | OC(Cn1ccnc1)(c1ccc(-c2cccnc2)cc1)c1ccc(F)cc1F (stereo not drawn) | 3.31
74 | CCOC(=O)c1cccc(O)c1 | 2.47
75 | O=C(O)/C=C/Oc1ccc(Cl)cc1Cl | 3.46

Row | Compound | logP
76 | Cc1ccc(Cl)c(N=C2NCCN2)c1 | 1.83
77 | Cc1ccccc1C(OCCN(C)C)c1ccccc1 (stereo not drawn) | 3.77
78 | CCCCCCCCOC(=O)c1cc(=O)[nH]c(=O)[nH]1 | 2.6
79 | Cc1cn([C@H]2C=C[C@@H](CO)O2)c(=O)[nH]c1=O | -0.72
80 | Cc1cccc(C)c1NC(=O)C(C)N (stereo not drawn) | 0.76
81 | CCC(C(=O)OCc1ccccc1)C(COC(=O)c1cccc(Cl)c1)Cc1cncn1C (stereo not drawn) | 5.08
82 | C#CC1(O)C(F)CC2C3CCc4cc(O)ccc4C3CCC21C (stereo not drawn) | 3.3
83 | CCC(C(=O)OCc1ccccc1)C(CO)Cc1cncn1C (stereo not drawn) | 1.97
84 | COc1cccc2c1C(=O)c1c(O)c3c(c(O)c1C2=O)CC(O)(C(=O)CO)CC3OC1CC(N2CCOCC2)C(O)C(C)O1 (stereo not drawn) | 1.73
85 | CC(C)NCC(O)c1ccc2ccccc2c1 (stereo not drawn) | 3
86 | Cc1[nH]c2ccccc2c1C | 3.05
87 | O=C(COc1ccc(OCCNCC(O)COc2ccccc2)cc1)N1CCCCC1 (stereo not drawn) | 2.6
88 | CC(=O)c1c(O)c(C)c(O)c2c1OC1=CC(=O)C(C(C)=O)C(=O)C12C (stereo not drawn) | 2.88
89 | CCCCCCCCC=CCCCCCCCC(=O)O | 7.64
90 | CCc1ccc(C2C(=O)c3ccccc3C2=O)cc1 | 3.92
91 | C=C(C)C(=O)OC1CC2=CC(CC3(C)OC3C3OC(=O)C(=C)C13)OC2=O (stereo not drawn) | 0.69
92 | CCOC(=O)c1cnc(-c2ccc(OCC(O)CNCCc3ccc(OC)c(OC)c3)cc2)[nH]1 (stereo not drawn) | 2.3
93 | C=CCC(NC(=O)C(Cc1ccc(OC)cc1)NS(=O)(=O)N1CCOCC1)C(=O)NC(CC1CCCCC1)C(=O)C(F)(F)C(=O)NCCN1CCOCC1 (stereo not drawn) | 2.73
94 | CC(C)N1C(=O)SC(=Cc2ccc([N+](=O)[O-])o2)C1=O | 2.42
95 | Oc1cccc2c1CCCC2 | 2.95
96 | COc1cc(C)c(/C=C/C(C)=C/C=C/C(C)=C/C(=O)O)c(C)c1C | 6.4
97 | CCN(CC)C(C)CC(=O)Nc1c(C)cccc1C (stereo not drawn) | 2.63
98 | Nc1nc2c(ncn2C2OC(CO)C(O)C2O)c(=O)[nH]1 (stereo not drawn) | -1.9
